Experimental data: patent publication US11020358B2, “Method for the anti-senescence of and/or rejuvenating stem cells” (GWO XI STEM CELL APPLIED TECHNOLOGY CO., LTD., priority 2014, dated 2021)

Tests used:
ADSCs = experiment: Osteogenic differentiation assay; type: cell-based, human; conditions: H2O2 group ADSCs (100 μM 2 h), compared to untreated group
Procedure: Four portions of equal volume of the above culture medium containing the sub-cultured ADSCs were separately handled by adding thereinto H2O2 (purchased from Sigma-Aldrich) at a final concentration of 100 μM and reacting for 2 hours to induce senescence of the ADSCs, replacing the culture medium with a fresh culture medium, adding thereinto TC (trans-cinnamaldehyde, purchased from Sigma-Aldrich) at a final concentration of 0, 2, 4 or 6 μM and reacting for 6 hours, so as to obtain “H2O2 group (i.e., treated with H2O2 for 2 hours, but not treated with TC),” “H2O2+TC2 group (i.e., treated with H2O2 for 2 hours and then treated with 2 μM of TC for 6 hours),” “H2O2+TC4 group (i.e., treated with H2O2 for 2 hours and then treated with 4 μM of TC for 6 hours),” and “H2O2+TC6 group (i.e., treated with H2O2 for 2 hours and then treated with 6 μM of TC for 6 hours)” ADSCs. […] After being photographed, the absorbance at a wavelength of 450 nm (i.e., OD450) of each sample was measured to figure out the effect of H2O2 and/or TC on the osteogenic differentiation capacity of ADSCs.

SIRT1 gene = experiment: Quantitative RT-PCR of SIRT1 gene in ADSCs; type: cell-based, human
Procedure: Four portions of equal volume of the above culture medium containing the sub-cultured ADSCs were separately handled by adding thereinto H2O2 (purchased from Sigma-Aldrich) at a final concentration of 100 μM and reacting for 2 hours to induce senescence of the ADSCs, replacing the culture medium with a fresh culture medium, adding thereinto TC (trans-cinnamaldehyde, purchased from Sigma-Aldrich) at a final concentration of 0, 2, 4 or 6 μM and reacting for 6 hours, so as to obtain “H2O2 group (i.e., treated with H2O2 for 2 hours, but not treated with TC),” “H2O2+TC2 group (i.e., treated with H2O2 for 2 hours and then treated with 2 μM of TC for 6 hours),” “H2O2+TC4 group (i.e., treated with H2O2 for 2 hours and then treated with 4 μM of TC for 6 hours),” and “H2O2+TC6 group (i.e., treated with H2O2 for 2 hours and then treated with 6 μM of TC for 6 hours)” ADSCs.
Five portions of equal volume of the above culture medium containing the sub-cultured ADSCs were separately handled by adding thereinto with H2O2 at a final concentration of 100 μM and reacting for 2 hours to induce senescence of the ADSCs. Then, the culture medium in each of the five portions was replaced with a fresh culture medium. The first portion was handed by adding thereinto TC at a final concentration of 6 μM and reacting for 6 hours to obtain “TC6H group” ADSCs. The second to fifth portions were handled by adding thereinto TC at a final concentration of 6 μM, reacting for 6 hours, and then transferring and incubating the ADSCs in DMEM for 12, 24, 48 and 72 hours respectively to obtain “TC12H group,” “TC24H group,” “TC48H group” and “TC72H group” ADSCs. […]
Each of the cDNA of ADSCs of different groups from Experiment (3-1) was handled as follows. […] The mixture was then placed in a real-time quantitative PCR machine (ABI prism 7700 sequence detection system) to perform a reaction for quantifying the gene expression levels. […]

SMILES	cell number after osteogenic differentiation (OD450) (ADSCs)	expression levels of SIRT1 gene (quantitative RT-PCR) (SIRT1 gene; ADSCs treated only with 2, 4 and 6 μM TC 6 h (FIG. 5A))	time for which the effect of TC on increasing SIRT1 gene expression is maintained (SIRT1 gene; H2O2-senescent ADSCs, 6 μM TC 6 h, then incubated in DMEM 12-72 h, no significant difference to TC6H group)	expression levels of SIRT1 gene (quantitative RT-PCR) (SIRT1 gene; H2O2-senescent ADSCs, 2, 4 and 6 μM TC 6 h, compared to H2O2 group (FIG. 5B))
OO [H2O2, reference compound]	significantly reduced			
O=C/C=C/c1ccccc1 [TC, trans-cinnamaldehyde]		significantly increased along with the increment in the concentration of TC	at least 72 hours	significantly increased along with the increment in the concentration of TC
